Test results taken from ChEMBL document CHEMBL4004838, “Design and synthesis of novel phenyl -1, 4-beta-carboline-hybrid molecules as potential anticancer agents” (Eur J Med Chem, 2017).

Legend:
Format in all cases: functional
EKVX = assay: Growth inhibition of human EKVX cells assessed as cell growth at 0.1 uM incubated for 48 hrs by sulforhodamine B assay relative to control; details: read-out: Activity
U-251 = assay: Growth inhibition of human U251 cells assessed as cell growth at 100 uM incubated for 48 hrs by sulforhodamine B assay relative to control; details: U-251, 48 h, read-out: Activity
LOX IMVI [1] = assay: Growth inhibition of human LOXIMVI cells assessed as cell growth at 100 uM incubated for 48 hrs by sulforhodamine B assay relative to control; details: read-out: Activity
MCF7 [2] = assay: Growth inhibition of human MCF7 cells assessed as cell growth at 0.1 uM incubated for 48 hrs by sulforhodamine B assay relative to control; details: MCF7, 48 h, read-out: Activity
SR = assay: Growth inhibition of human SR cells incubated for 48 hrs by sulforhodamine B assay
Hs-578T = assay: Growth inhibition of human Hs 578T cells incubated for 48 hrs by sulforhodamine B assay
DU-145 = assay: Growth inhibition of human DU145 cells assessed as cell growth at 100 uM incubated for 48 hrs by sulforhodamine B assay relative to control; details: DU-145, 48 h, read-out: Activity
HOP-62 = assay: Growth inhibition of human HOP62 cells assessed as cell growth at 0.01 uM incubated for 48 hrs by sulforhodamine B assay relative to control; details: HOP-62, 48 h, read-out: Activity
NCI-H322M = assay: Growth inhibition of human NCI-H322M cells assessed as cell growth at 1 uM incubated for 48 hrs by sulforhodamine B assay relative to control; details: read-out: Activity
A549 [3] = assay: Growth inhibition of human A549/ATCC cells incubated for 48 hrs by sulforhodamine B assay; details: A549, 48 h
ACHN = assay: Growth inhibition of human ACHN cells assessed as cell growth at 0.01 uM incubated for 48 hrs by sulforhodamine B assay relative to control; details: read-out: Activity
SK-MEL-2 = assay: Growth inhibition of human SK-MEL-2 cells assessed as cell growth at 0.01 uM incubated for 48 hrs by sulforhodamine B assay relative to control; details: SK-MEL-2, 48 h, read-out: Activity
MDA-MB-435 = assay: Growth inhibition of human MDA-MB-435 cells assessed as cell growth at 1 uM incubated for 48 hrs by sulforhodamine B assay relative to control; details: MDA-MB-435, 48 h, read-out: Activity
UACC-257 = assay: Growth inhibition of human UACC257 cells assessed as cell growth at 100 uM incubated for 48 hrs by sulforhodamine B assay relative to control; details: UACC-257, 48 h, read-out: Activity
SK-OV-3 = assay: Growth inhibition of human SKOV3 cells assessed as cell growth at 0.1 uM incubated for 48 hrs by sulforhodamine B assay relative to control; details: SK-OV-3, 48 h, read-out: Activity
HCC 2998 = assay: Growth inhibition of human HCC2998 cells incubated for 48 hrs by sulforhodamine B assay; details: HCC 2998, 48 h; for TGI: read-out: pTGI (converted)
A549 [4] = assay: Growth inhibition of human A549/ATCC cells assessed as cell growth at 1 uM incubated for 48 hrs by sulforhodamine B assay relative to control; details: A549, 48 h, read-out: Activity
HCT-116 = assay: Growth inhibition of human HCT116 cells incubated for 48 hrs by sulforhodamine B assay; details: HCT-116, 48 h
NCI/ADR-RES = assay: Growth inhibition of human NCI-ADR-RES cells assessed as cell growth at 0.1 uM incubated for 48 hrs by sulforhodamine B assay relative to control; details: read-out: Activity
M14 = assay: Growth inhibition of human M14 cells assessed as cell growth at 0.1 uM incubated for 48 hrs by sulforhodamine B assay relative to control; details: M14, 48 h, read-out: Activity
HCT-15 = assay: Growth inhibition of human HCT15 cells assessed as cell growth at 0.01 uM incubated for 48 hrs by sulforhodamine B assay relative to control; details: HCT-15, 48 h, read-out: Activity
MDA-MB-231 = assay: Growth inhibition of human MDA-MB-231 cells assessed as cell growth at 100 uM incubated for 48 hrs by sulforhodamine B assay relative to control; details: MDA-MB-231, 48 h, read-out: Activity
MCF7 [5] = assay: Growth inhibition of human MCF7 cells assessed as cell growth at 1 uM incubated for 48 hrs by sulforhodamine B assay relative to control; details: MCF7, 48 h, read-out: Activity
HT-29 = assay: Growth inhibition of human HT-29 cells incubated for 48 hrs by sulforhodamine B assay; details: HT-29, 48 h
LOX IMVI [6] = assay: Growth inhibition of human LOXIMVI cells assessed as cell growth at 0.01 uM incubated for 48 hrs by sulforhodamine B assay relative to control; details: read-out: Activity
SNB-19 = assay: Growth inhibition of human SNB19 cells assessed as cell growth at 100 uM incubated for 48 hrs by sulforhodamine B assay relative to control; details: SNB-19, 48 h, read-out: Activity
IGROV-1 = assay: Growth inhibition of human IGROV1 cells assessed as cell growth at 0.01 uM incubated for 48 hrs by sulforhodamine B assay relative to control; details: IGROV-1, 48 h, read-out: Activity
SF-295 = assay: Growth inhibition of human SF295 cells assessed as cell growth at 100 uM incubated for 48 hrs by sulforhodamine B assay relative to control; details: SF-295, 48 h, read-out: Activity
SNB-75 = assay: Growth inhibition of human SNB75 cells assessed as cell growth at 100 uM incubated for 48 hrs by sulforhodamine B assay relative to control; details: SNB-75, 48 h, read-out: Activity
Malme-3M = assay: Growth inhibition of human MALME-3M cells assessed as cell growth at 100 uM incubated for 48 hrs by sulforhodamine B assay relative to control; details: read-out: Activity
UO-31 = assay: Growth inhibition of human UO31 cells assessed as cell growth at 100 uM incubated for 48 hrs by sulforhodamine B assay relative to control; details: UO-31, 48 h, read-out: Activity
[7] = read-out: LC50 (the source's name)
[8] = read-out: pLC50 (the source's name) (converted)

`c1ccc2c3c([nH]c2c1)C(c1ccc(C2NCCc4c2[nH]c2ccccc42)cc1)NCC3` (racemic) showed a growth at 0.1 µM (EKVX) of 90%, a growth at 100 µM (U-251) of 92% and a growth at 100 µM (LOX IMVI [1]) of 84%. For the same compound, the growth at 0.1 µM (MCF7 [2]) was 90%, the GI50 (SR; read-out: GI50) was 2.47 µM and the CC50 (SR; [7]) was 4.51 µM. For the same compound, the TGI (SR; read-out: TGI) was 5.56 µM, the GI50 (SR; read-out: pGI50 (converted)) was 0.245 µM and the CC50 (SR; [8]) was 4.47 µM. It also gave a TGI (SR; read-out: pTGI (converted)) of 0.55 µM, a GI50 (Hs-578T; read-out: GI50) of 1.43 µM and a CC50 (Hs-578T; [7]) of 11.5 µM. The TGI (Hs-578T; read-out: TGI) was 3.82 µM, the GI50 (Hs-578T; read-out: pGI50 (converted)) was 1.45 µM and the CC50 (Hs-578T; [8]) was 11.5 µM. The TGI (Hs-578T; read-out: pTGI (converted)) was 3.8 µM, the growth at 100 µM (DU-145) was -94% and the growth at 0.01 µM (HOP-62) was 84%. It also gave a growth at 1 µM (NCI-H322M) of 65%, a GI50 (A549 [3]; read-out: GI50) of 1.1 µM and a TGI (A549 [3]; read-out: TGI) of 2.54 µM. It also gave a GI50 (A549 [3]; read-out: pGI50 (converted)) of 1.1 µM, a TGI (A549 [3]; read-out: pTGI (converted)) of 2.51 µM and a growth at 0.01 µM (ACHN) of 92%. It also gave a growth at 0.01 µM (SK-MEL-2) of 100%, a growth at 1 µM (MDA-MB-435) of 11% and a growth at 100 µM (UACC-257) of 94%. For the same compound, the growth at 0.1 µM (SK-OV-3) was 95%, the GI50 (HCC 2998; read-out: pGI50 (converted)) was 0.275 µM and the TGI (HCC 2998) was 1.29 µM. The growth at 1 µM (A549 [4]) was 56%, the GI50 (HCT-116; read-out: GI50) was 1.7 µM and the CC50 (HCT-116; [7]) was 6.59 µM. It also gave a TGI (HCT-116; read-out: TGI) of 3.35 µM, a GI50 (HCT-116; read-out: pGI50 (converted)) of 0.17 µM and a CC50 (HCT-116; [8]) of 0.661 µM. It also gave a growth at 0.1 µM (NCI/ADR-RES) of 93%, a growth at 0.1 µM (M14) of 94% and a growth at 0.01 µM (HCT-15) of 94%. For the same compound, the growth at 100 µM (MDA-MB-231) was -92%, the growth at 1 µM (MCF7 [5]) was 22% and the GI50 (HT-29; read-out: GI50) was 2.8 µM. The CC50 (HT-29; [7]) was 3.92 µM, the TGI (HT-29; read-out: TGI) was 7.35 µM and the GI50 (HT-29; read-out: pGI50 (converted)) was 0.282 µM. It also gave a CC50 (HT-29; [8]) of 3.89 µM, a TGI (HT-29; read-out: pTGI (converted)) of 0.741 µM and a growth at 0.01 µM (LOX IMVI [6]) of 94%. For the same compound, the growth at 100 µM (SNB-19) was 88%, the growth at 0.01 µM (IGROV-1) was 99% and the growth at 100 µM (SF-295) was 89%. The growth at 100 µM (SNB-75) was 98%, the growth at 100 µM (Malme-3M) was 83% and the growth at 100 µM (UO-31) was -96%.
`c1ccc2[nH]c(-c3ccc(-c4nccc5c4[nH]c4ccccc45)cc3)nc2c1` was tested, and the growth at 0.1 µM (EKVX) was 96%, the growth at 100 µM (U-251) was 75% and the growth at 100 µM (LOX IMVI [1]) was 49%. It also gave a growth at 0.1 µM (MCF7 [2]) of 96%, a GI50 (SR; read-out: GI50) of 2.21 µM and a CC50 (SR; [7]) of over 1 µM. For the same compound, the TGI (SR; read-out: TGI) was 6.36 µM, the GI50 (SR; read-out: pGI50 (converted)) was 2.19 µM and the CC50 (SR; [8]) was over 100 µM. For the same compound, the TGI (SR; read-out: pTGI (converted)) was 6.31 µM, the GI50 (Hs-578T; read-out: GI50) was 2.23 µM and the TGI (Hs-578T; read-out: TGI) was 5.93 µM. It also gave a GI50 (Hs-578T; read-out: pGI50 (converted)) of 2.24 µM, a CC50 (Hs-578T; [8]) of over 100 µM and a TGI (Hs-578T; read-out: pTGI (converted)) of 5.89 µM. It also gave a growth at 100 µM (DU-145) of 72%, a growth at 0.01 µM (HOP-62) of 86% and a growth at 1 µM (NCI-H322M) of 96%. For the same compound, the GI50 (A549 [3]; read-out: GI50) was 4.15 µM, the LC50 (concentration killing 50% of starting cells) (A549 [3]; read-out: LC50) was 7.98 µM and the GI50 (A549 [3]; read-out: pGI50 (converted)) was 4.17 µM. It also gave an LC50 (concentration killing 50% of starting cells) (A549 [3]; read-out: pLC50 (converted)) of 79.4 µM, a TGI (A549 [3]; read-out: pTGI (converted)) of 18.6 µM and a growth at 0.01 µM (ACHN) of 99%. The growth at 0.01 µM (SK-MEL-2) was 95%, the growth at 1 µM (MDA-MB-435) was 91% and the growth at 100 µM (UACC-257) was 81%. The growth at 0.1 µM (SK-OV-3) was 98%, the GI50 (HCC 2998; read-out: GI50) was 3.96 µM and the LC50 (HCC 2998; read-out: LC50) was 5.31 µM. For the same compound, the GI50 (HCC 2998; read-out: pGI50 (converted)) was 3.98 µM, the LC50 (HCC 2998; read-out: pLC50 (converted)) was 53.7 µM and the TGI (HCC 2998) was 15.8 µM. The growth at 1 µM (A549 [4]) was 96%, the CC50 (HCT-116; [7]) was 4.43 µM and the GI50 (HCT-116; read-out: pGI50 (converted)) was 2.82 µM. For the same compound, the CC50 (HCT-116; [8]) was 44.7 µM, the TGI (HCT-116; read-out: pTGI (converted)) was 10.5 µM and the growth at 0.1 µM (NCI/ADR-RES) was 98%. It also gave a growth at 0.1 µM (M14) of 98%, a growth at 0.01 µM (HCT-15) of 93% and a growth at 100 µM (MDA-MB-231) of 54%. It also gave a growth at 1 µM (MCF7 [5]) of 91%, a GI50 (HT-29; read-out: GI50) of 2.19 µM and a CC50 (HT-29; [7]) of 8.97 µM. For the same compound, the TGI (HT-29; read-out: TGI) was 4.43 µM, the GI50 (HT-29; read-out: pGI50 (converted)) was 2.19 µM and the CC50 (HT-29; [8]) was 8.91 µM. It also gave a TGI (HT-29; read-out: pTGI (converted)) of 4.47 µM, a growth at 0.01 µM (LOX IMVI [6]) of 93% and a growth at 100 µM (SNB-19) of 29%. It also gave a growth at 0.01 µM (IGROV-1) of 99%, a growth at 100 µM (SF-295) of 71% and a growth at 100 µM (SNB-75) of 84%. For the same compound, the growth at 100 µM (Malme-3M) was 72% and the growth at 100 µM (UO-31) was 82%.
